Holding throughout (assay type): in vivo
Experiment [1] deals with Musca domestica. As to the kind of experiment: Knockdown test, Musca domestica (houseflies - adults). Particulars: cotton wool/sugar, 4 hours, read-out: grading of knockdown, MD/KD. The procedure:
(§1) The activity of the Product was determined using a variety of insect and acarine pests. The Product was used in the form of liquid preparations containing 500, 250 or 100 parts per million (ppm) by weight of the Product. The preparations were made by dissolving the Product in acetone and diluting the solutions with water containing 0.01% by weight of a wetting agent sold under the trade name "LISSAPOL" NX until the liquid preparations contained the required concentratio of the Product. "Lissapol" is a Registered Trade Mark.
(§2) The test procedure adopted with regard to each pest was basically the same and comprised supporting a number of the pests on a medium which was usually a host plant or a foodstuff on which the pests feed, and treating either or both the pests and the medium with the preparations. The mortality of the pests was then assessed at periods usually varying from one to three days after the treatment.
In the case of the species Musca domestica (housefly), additional tests to determine the knockdown effect of the compounds were performed.
(§3) The results of the tests are given in Table IV for each of the Products, at the rate in parts per million given in the second column as a grading of mortality designated as A, B or C wherein A indicates 80-100% mortality or knockdown (70-100% in the case of Spodoptera exigua), B indicates 50-79% mortality or knockdown (50-69% in the case of Spodoptera exigua) and C indicates less than 50% mortality or knockdown.
(§4) In Table IV the pest organism used is designated by a letter code and the pest species, the support medium or food, and the type and duration of test is given in Table III.

Experiment [2] concerns Myzus persicae. As to the kind of experiment: Insecticidal test, Myzus persicae (aphids), contact. The note with it: 72 h, Chinese Cabbage leaf, 3 days, read-out: grading of mortality, MP. The procedure:
as §1, §2, §3, §4

Experiment [3] deals with Musca domestica. Put plainly: Insecticidal test, Musca domestica (houseflies - adults), contact. Particulars: 24 h, cotton wool/sugar, 1 day, read-out: grading of mortality, MD. The procedure:
as §1, §2, §3, §4

Experiment [4] relates to Diabrotica balteata. Put plainly: Insecticidal test, Diabrotica balteata (rootworm larvae), residual. Particulars: 72 h, filter paper/maize seed, 3 days, read-out: grading of mortality, DB. The procedure: as §1, §2, §3, §4
In experiment [5] the test system is Tetranychus urticae. As to the kind of experiment: Insecticidal/acaricidal test, Tetranychus urticae (spider mites - adult), contact. The note with it: 72 h, French bean leaf, 3 days, read-out: grading of mortality, TU. How it is done:
as §1, §2, §3, §4

Experiment [6] has as its system Heliothis virescens. As to the kind of experiment: whole plant or invertebrate. The note with it: in Gossypium hirsutum, 72 h, read-out: grading of mortality, HV. How it is done: as §1, §2, §3, §4
The subject of experiment [7] is Blattella germanica. As to the kind of experiment: Insecticidal test, Blattella germanica (cockroach nymphs), residual. The note with it: 72 h, plastic pot, 3 days, read-out: grading of mortality, BG. How it is done: as §1, §2, §3, §4
For experiment [8], the system named is Nilaparvata lugens. Put plainly: Insecticidal test, Nilaparvata lugens (brown planthopper), contact. The note with it: 72 h, Cabbage leaf, 3 days, read-out: grading of mortality, NL. The procedure:
as §1, §2, §3, §4

The text below walks through data of patent US5225607A, “Insecticidal ethers” (Imperial Chemical Industries PLC, priority 1985, dated 1993).

Each structure is given as a SMILES string.

The term mortality denotes the share of the test organisms that died.

As for `FC(F)(F)C(COCc1cccc(Oc2ccccc2)c1)c1ccc(Cl)cc1` (centres unmarked) [Compound 16, 1,1,1-Trifluoro-2-(4-chlorophenyl)-3-(3-phenoxybenzyloxy)propane], the pest or weed control at 100 ppm in experiment [1] was in the range of 80 to 100%. In addition, the mortality at 100 ppm was 80 to 100% in experiment [2]; 80 to 100% in experiment [3]; 80 to 100% in experiment [4]; below 50% in experiment [5]; 80 to 100% in experiment [6]; 80 to 100% in experiment [7]. Further, in experiment [8], the mortality at 100 ppm lay within 80 to 100%.
For `Fc1ccc(COCC(c2ccc3c(c2)CCC3)C(F)(F)F)cc1Oc1ccccc1` (centres unmarked) [Compound 19, 1,1,1-Trifluoro-2-(5-indanyl)-3-(3-phenoxy-4-fluorobenzyloxy)propane], the pest or weed control at 250 ppm in experiment [1] lay in the range of 80 to 100%. Further, the mortality at 250 ppm in experiment [2] was 80 to 100%; in experiment [3], 80 to 100%; in experiment [4] it was 80 to 100%; in experiment [5], below 50%; in experiment [6], 80 to 100%; in experiment [7], 80 to 100%. In experiment [8], the mortality at 250 ppm is 80 to 100%.
With `CCCc1ccc(C(COCc2ccc(F)c(Oc3ccccc3)c2)C(F)(F)F)cc1` (centres unmarked) [Compound 20, 1,1,1-Trifluoro-2-(4-n-propylphenyl)-3-(3-phenoxy-4-fluorobenzyloxy)propane], in experiment [1], the pest or weed control at 100 ppm lay in the range of 80 to 100%. The mortality at 100 ppm in experiment [2], in experiment [3], in experiment [4], in experiment [5], in experiment [6] and in experiment [7] was 80 to 100% throughout. For the same compound, the mortality at 100 ppm in experiment [8] was 80 to 100%.
`FC(F)(F)Oc1ccc(C(COCc2cccc(Oc3ccc(Cl)cc3)c2)C(F)(F)F)cc1` (centres unmarked) [Compound 26, 1,1,1-Trifluoro-2-(4-trifluoromethoxyphenyl)-3-(3-(4-chlorophenoxy)benzyloxy)propane]: the pest or weed control at 100 ppm in experiment [1] lay within 80 to 100%. Moreover, the mortality at 100 ppm in experiment [2] was in the range of 50 to 79%; in experiment [3], 80 to 100%; in experiment [4], 80 to 100%; in experiment [5] it was 80 to 100%; in experiment [6], 80 to 100%; in experiment [7] it was 80 to 100%. Besides, in experiment [8], the mortality at 100 ppm lay within 80 to 100%.
Turning to `FC(F)(F)Oc1ccc(C(COCc2cccc(Oc3ccccc3)c2)C(F)(F)F)cc1` (centres unmarked) [Compound 27, 1,1,1-Trifluoro-2-(4-trifluoromethoxyphenyl)-3-(3-phenoxybenzyloxy)propane], the pest or weed control at 100 ppm in experiment [1] was below 50%. Besides, the mortality at 100 ppm in experiment [2], in experiment [3], in experiment [4], in experiment [5], in experiment [6] and in experiment [7] was 80 to 100% each time. Besides, the mortality at 100 ppm in experiment [8] was 80 to 100%.
`COc1ccc(C(COCc2ccc(F)c(Oc3ccccc3)c2)C(F)(F)F)cc1` (centres unmarked) [Compound 29, 1,1,1-Trifluoro-2-(4-methoxyphenyl)-3-(3-phenoxy-4-fluorobenzyloxy)propane]: in experiment [1], the pest or weed control at 100 ppm was 80 to 100%. Besides, the mortality at 100 ppm in experiment [2] was 80 to 100%; in experiment [3], 80 to 100%; in experiment [4] it was 80 to 100%; in experiment [5], below 50%; in experiment [6] it was 80 to 100%; in experiment [7] it was 80 to 100%. Besides, in experiment [8], the mortality at 100 ppm was 80 to 100%.
Consider `COc1ccc(C(COCc2cccc(Oc3ccccc3)c2)C(F)(F)F)cc1` (centres unmarked) [Compound 30, 1,1,1-Trifluoro-2-(4-methoxyphenyl)-3-(3-phenoxybenzyloxy)propane], for which the pest or weed control at 500 ppm in experiment [1] lay within 80 to 100%. Also, the mortality at 500 ppm was below 50% in experiment [2]; 80 to 100% in experiment [3]; 80 to 100% in experiment [4]; below 50% in experiment [5]; 80 to 100% in experiment [6]; 80 to 100% in experiment [7]. Besides, the mortality at 500 ppm in experiment [8] is 80 to 100%.
Consider `CCOc1ccc(C(COCc2ccc(F)c(Oc3ccccc3)c2)C(F)(F)F)cc1` (centres unmarked) [Compound 33, 1,1,1-Trifluoro-2-(4-ethoxyphenyl)-3-(3-phenoxy-4-fluorobenzyloxy)propane], for which the pest or weed control at 500 ppm in experiment [1] lay in the range of 80 to 100%. Moreover, the mortality at 500 ppm in experiment [2], in experiment [3], in experiment [4], in experiment [5], in experiment [6] and in experiment [7] was 80 to 100% each time. Also, the mortality at 500 ppm in experiment [8] fell in the range of 80 to 100%.
Turning to `CCOc1ccc(C(Cl)(COCc2cccc(Oc3ccccc3)c2)C(F)(F)F)cc1` (centres unmarked) [Compound 38, 1,1,1-trifluoro-2-chloro-2-(4-ethoxyphenyl)-3-(3-phenoxybenzyloxy)propane], in experiment [1], the pest or weed control at 100 ppm was below 50%. Further, the mortality at 100 ppm was 80 to 100% in experiment [2]; 80 to 100% in experiment [3]; below 50% in experiment [4]; below 50% in experiment [5]; 80 to 100% in experiment [6]; 80 to 100% in experiment [7]. For the same compound, in experiment [8], the mortality at 100 ppm is 50 to 79%.
Take `CCOc1ccc(C(Cl)(COCc2cccc(Oc3ccc(Cl)cc3)c2)C(F)(F)F)cc1` (centres unmarked) [Compound 42, 1,1,1-Trifluoro-2-chloro-2-(4-ethoxyphenyl)-3-(3-(4-chlorophenoxy)benzyloxy)propane]: the pest or weed control at 250 ppm in experiment [1] is 80 to 100%. For the same compound, the mortality at 250 ppm in experiment [2] was 80 to 100%; in experiment [3] it was 80 to 100%; in experiment [4], 50 to 79%; in experiment [5], below 50%; in experiment [6], 80 to 100%; in experiment [7], 80 to 100%. The mortality at 250 ppm in experiment [8] fell in the range of 80 to 100%.
In the case of `CCOc1ccc(C(Cl)(COCc2ccc(F)c(Oc3ccc(Cl)cc3)c2)C(F)(F)F)cc1` (centres unmarked) [Compound 44, 1,1,1-Trifluoro-2-chloro-2-(4-ethoxyphenyl)-3-(3-(4-chlorophenoxy)-4-fluorobenzyloxy)propane], the pest or weed control at 500 ppm in experiment [1] was in the range of 80 to 100%. The mortality at 500 ppm is 80 to 100% in experiment [2]; 80 to 100% in experiment [3]; 50 to 79% in experiment [4]; below 50% in experiment [5]; 80 to 100% in experiment [6]; 80 to 100% in experiment [7]. The mortality at 500 ppm in experiment [8] was in the range of 80 to 100%.
Turning to `CCOc1ccc(C(Cl)(COCc2coc(Cc3ccccc3)c2)C(F)(F)F)cc1` (centres unmarked) [Compound 45, 1,1,1-Trifluoro-2-chloro-2-(4-ethoxyphenyl)-3-(5-benzyl-3-furanylmethyloxy)propane], the pest or weed control at 250 ppm in experiment [1] fell in the range of 80 to 100%. Besides, the mortality at 250 ppm was below 50% in experiment [2]; below 50% in experiment [3]; below 50% in experiment [4]; 50 to 79% in experiment [5]; below 50% in experiment [6]; below 50% in experiment [7]. Moreover, the mortality at 250 ppm in experiment [8] is below 50%.
For `CCOc1ccc(C(Cl)(COCc2cccc(-c3ccccc3)c2C)C(F)(F)F)cc1` (centres unmarked) [Compound 46, 1,1,1-Trifluoro-2-chloro-2-(4-ethoxyphenyl)-3-(2-methyl-3-phenylbenzyloxy)propane], in experiment [1], the pest or weed control at 500 ppm lay within 80 to 100%. The mortality at 500 ppm in experiment [2], in experiment [3], in experiment [4], in experiment [5], in experiment [6] and in experiment [7] was below 50% in each case. Further, in experiment [8], the mortality at 500 ppm was below 50%.
